This is an account of results in patent US6228602A, “Competitive apo-peroxidase assay” (Bayer Corporation, priority 1999, dated 2001).

Series [1] addresses T1, apo-POD (Armoracia rusticana, UniProt P00433).
T1 construct: purchased Sigma Chemical Company, St. Louis, Mo
T1 sequence (P00433 31-353): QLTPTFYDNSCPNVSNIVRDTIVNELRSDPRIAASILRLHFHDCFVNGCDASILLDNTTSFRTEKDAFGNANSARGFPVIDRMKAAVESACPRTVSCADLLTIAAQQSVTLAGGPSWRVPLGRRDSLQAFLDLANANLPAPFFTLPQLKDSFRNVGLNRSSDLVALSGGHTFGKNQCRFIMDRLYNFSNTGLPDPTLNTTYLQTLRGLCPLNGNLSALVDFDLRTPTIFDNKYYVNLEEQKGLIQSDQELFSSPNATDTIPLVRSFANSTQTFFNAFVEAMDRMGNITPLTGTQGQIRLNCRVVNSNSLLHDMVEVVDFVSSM
Nature of the series: Metal porphyrin study: reactivation of apo-peroxidase (Example IV). The series is classed as biochemical, horse radish. The settings on record: for % R @ 90 second read time on CLINITEK-200+, mean: 12 μM apo-POD, HEMASTIX no lepidine/pH 7.5; for response / activity with apo-peroxidase (in words): metal porphyrin study. As for the experimental part:
(§1) In this example, other metal porphyrins were tested for their ability to reactivate different types of apo-peroxidases. Metals such as Fe, Cu, Mg, Zn, Ni, Mn, Co and Pd were complexed to hematin and added to the peroxidase detecting agent. Metals such as Mn, Fe, Cu and Co and porphyrins other than hematin, i.e. deuteroporphyrin and coproporphyrin were also shown to provide the desired response.

A short description of series [2]: Metal porphyrin study: metal porphyrin in water without apo-enzyme (Example IV). The series is classed as biochemical. The settings on record: HEMASTIX no lepidine/pH 7.5. As for the experimental part:
as §1

For series [3], the target named is T1, apo-POD. Nature of the series: Interference study with peroxidase detecting dry reagent (Example III). The settings on record: hemoglobin/myoglobin: reagent without modification; ascorbate: system with ascorbate scavenger. The series is classed as biochemical, horse radish. The procedure:
In this example, a peroxidase detecting dry reagent with resistance to 0.81 mg/dL hemoglobin (or myoglobin) and 25 mg/dL ascorbate and sufficient sensitivity to detect apo-peroxidase reactivation was used. […]
The reagent was tested by dipping it into solutions containing the interfering substance with and without Fe hematin. […]

Another series deals with T2, apo-Hb (Homo sapiens, UniProt P68871+P69905).
T2 construct: made in house
T2 sequence (P69905 2-142 limits assumed): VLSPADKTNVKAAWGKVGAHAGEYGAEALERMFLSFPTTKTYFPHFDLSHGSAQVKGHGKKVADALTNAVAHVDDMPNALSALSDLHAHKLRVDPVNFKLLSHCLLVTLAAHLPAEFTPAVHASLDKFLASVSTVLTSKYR
T2 sequence (P68871 2-147 limits assumed): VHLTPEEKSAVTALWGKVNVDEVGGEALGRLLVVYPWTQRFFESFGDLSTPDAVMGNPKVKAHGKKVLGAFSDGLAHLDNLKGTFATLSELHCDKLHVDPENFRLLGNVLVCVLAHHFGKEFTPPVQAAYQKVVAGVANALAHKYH
Nature of the series: Metal porphyrin study: reactivation of apo-hemoglobin (Example IV). The series is classed as biochemical. The settings on record: 12 μM apo-Hb, 12 μM metal porphyrin, HEMASTIX no lepidine/pH 7.5. The procedure:
as §1
A 0.7% solution of hemoglobin was lowered to pH 1.5 and the resulting solution was ultrafiltered through a 10 KDa cutoff membrane followed by several changes of water. Filtered material was reconstituted into water. The apo-hemoglobin passed […]. […] It produced a HEMASTIX® result of +++++ indicating a high concentration of hemoglobin.

For series [4], the target named is T1, apo-POD. Nature of the series: Detection limit study: peroxidase activity / apo-POD reactivation read with HEMASTIX reagent (Example I). The series is classed as biochemical, horse radish. The settings on record: for peroxidase activity (in words): 3.6 nM. The procedure: In this example apo-peroxidase is compared to hematin and hematin-antigen conjugates to determine the detectable concentrations and effects of conjugation and antigen molecular weight on apo-enzyme reactivations. Solutions containing combinations of apo-POD, Fe^+3 hematin and hematin conjugate were tested for peroxidase activity. Peroxidase activity was measured in urine using HEMASTIX® reagent as set out in Table 3. This reagent is similar to that set out in Table 1 but lacking the metal porphyrin conjugate, competitive binder and apo-peroxidase while containing lepidine as an activator.
A 10 μL portion of hematin (3.6 μM, 0.23 mg/dL in phosphate buffered saline) or a 10 μL hematin-BJP allotment (3.6 μM, 8.61 mg/dL in phosphate buffered saline) was mixed with 10 μL apo-POD (3.6 μM, 14.0 mg/dL in phosphate buffered saline) all in 980 μL of phosphate buffered saline and then diluted to the desired concentration with additional phosphate buffered saline. The solution was incubated for 1 minute at 40° C. or at room temperature. The response of HEMASTIX® reagent dipped into the test solution was measured on a CLINITEK™-200 reflectance instrument. The response of the reagent set out in Table 1 on the phosphate buffered solution alone was 65.2% reflectance at 1 minute.
Apo-horse radish peroxidase was obtained from Sigma Chemical Company of St. Louis, Mo. The phosphate buffered solution was prepared by adding 0.69 g monobasic sodium phosphate, 0.71 g of dibasic sodium phosphate and 0.45 g of sodium chloride to 100 mL of water.
The HEMASTIX® reagent referred to earlier with the addition of lepidine and at a lower pH when compared to the formula of Table 1 was applied to the strip in a two dip system of the following composition and used in Examples I to IV (Table 3).

For series [5], the target named is T1, apo-POD. The series is described as above. The series is classed as biochemical, horse radish. The following applies: 1 minute @ 30° C.
The next series concerns the target T3, apo-peroxidase (Armoracia rusticana, UniProt P00433).
T3 construct: purchased Sigma Chemical Company, St. Louis, Mo
T3 sequence (P00433 31-353): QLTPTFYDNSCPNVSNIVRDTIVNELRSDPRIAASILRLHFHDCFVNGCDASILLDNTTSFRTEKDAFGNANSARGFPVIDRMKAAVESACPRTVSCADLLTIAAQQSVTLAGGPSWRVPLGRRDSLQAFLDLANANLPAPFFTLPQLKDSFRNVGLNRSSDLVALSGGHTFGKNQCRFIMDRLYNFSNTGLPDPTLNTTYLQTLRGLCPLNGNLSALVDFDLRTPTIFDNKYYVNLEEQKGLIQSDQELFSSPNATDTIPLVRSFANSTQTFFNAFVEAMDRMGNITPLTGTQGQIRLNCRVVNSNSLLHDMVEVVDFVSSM
Nature of the series: Proximity effect: antibody binding of hematin-antigen conjugate prevents apo-enzyme reactivation (Example II). The series is classed as biochemical, horse radish. The following applies: for Reagent Response (% R @ 30 Sec) @ 660 nm: 36 nM apo-peroxidase, 36 nM antigen-hematin, 36 nM antibody. As for the experimental part: A 10 μL sample of hematin-BJP^1 (3.6 μM, 8.61 mg/dL in phosphate buffered saline), anti-BJP (3.6 μM, 52.56 mg/dL in PBS) and BJP (3.6 μM, 8.28 mg/dL in phosphate buffered saline) were mixed with 10 μL apo-POD (3.6 μM, 14.0 mg/dL in phosphate buffered saline) and […] phosphate buffered saline. The solution was incubated for 5 to 10 minutes at room temperature and the response to HEMASTIX® reagent dipped in the test solution was measured using a CLINITEK®-200 instrument. The response of HEMASTIX® reagent with the phosphate buffered saline solution containing hematin alone was 65.7% reflectance at 1 minute. Sheep anti-human BJP monoclonal antibody was obtained from The Binding Site Limited of Birmingham, England.
In this example, antibody binding of the hematin-antigen conjugate is shown to prevent apo-enzyme reactivation (Table 4). The data set out in Table 4 were generated by using the HEMASTIX® formula with lepidine but lacking apo-peroxidase, antigen-hematin antigen and antibody. The later were mixed in solution and reagent strips with the modified HEMASTIX® formula were immediately dipped into the solution and read using a CLINITEK™-200+ reflectance spectrometer.

The mark [6] stands for this setting: 3.6 nM, antigen IgG, hematin, antigen-hematin or apo-POD alone (Cases A, B, E).
The mark [7] stands for this setting: (3.6 nM; antigen Sulfmethazine), hematin, antigen-hematin or apo-POD alone (Cases A, B, E).
[8] abbreviates: (3.6 mM; antigen BJP), hematin, antigen-hematin or apo-POD alone (Cases A, B, E).

Regarding Ni deuteroporphyrin, the “% R @ 90 second read time on CLINITEK-200+, mean” value (“% R @ 90 second read time” below) at apo-POD [1] (120 μM metal porphyrin) worked out at 76.1 % R; in series [2] (120 μM metal porphyrin), 75.5 % R.

For the molecule “hemoglobin: interfering substance, 0.81 mg/dL”, the “interference with peroxidase detecting reagent (in words)” value with apo-POD [3] is given as “causes a false positive response”.

In the case of Mn deuteroporphyrin, the “% R @ 90 second read time” value came out at 48.2 % R at apo-POD [1] (120 μM metal porphyrin) and 66.4 % R in series [2] (120 μM metal porphyrin). On apo-POD [1], the “response / activity with apo-peroxidase (in words)” value is “responses similar to those obtained for Fe”.

Take `CC1=Cc2cc3[n-]c(cc4nc(cc5[n-]c(cc1n2)cc5C)C(C)=C4CCC(=O)O)c(CCC(=O)O)c3C.[Fe+2]` [Fe deuteroporphyrin]: the “% R @ 90 second read time” value was found to be 49.2 % R on apo-Hb, 56.1 % R on apo-POD [1] (12 μM metal porphyrin) and 72.2 % R in series [2] (12 μM metal porphyrin).

On to “apo-POD: Apo-horse radish peroxidase obtained from Sigma Chemical Company”, for which the “peroxidase activity (in words)” value with apo-POD [4] (without partner) is “no activity by itself”. Moreover, the “time to complete reactivation” value with apo-POD [4] (20-40° C.) worked out at 1 min. The figures for the “Mean % Reflectance @ 660 nm” value with apo-POD [5] (setting [6]), in the series with apo-POD [5] (setting [7]) and with apo-POD [5] (setting [8]) were 62.3%, 61.2% and 64.1%, respectively.

Consider Fe coproporphyrin, for which the “% R @ 90 second read time” value on apo-Hb came out at 52.1 % R; at apo-POD [1] (12 μM metal porphyrin), 56.4 % R; in series [2] (12 μM metal porphyrin), 69.7 % R.

In the case of `CC1=Cc2cc3[n-]c(cc4nc(cc5[n-]c(cc1n2)cc5C)C(C)=C4CCC(=O)O)c(CCC(=O)O)c3C.[Cu+2]` [Cu deuteroporphyrin], the “% R @ 90 second read time” value on apo-POD [1] (120 μM metal porphyrin) worked out at 57.2 % R; in series [2] (120 μM metal porphyrin), 73.7 % R. The “response / activity with apo-peroxidase (in words)” value on apo-POD [1] is listed as “responses similar to those obtained for Fe”.

In the case of `CC1=Cc2cc3[n-]c(cc4nc(cc5[n-]c(cc1n2)cc5C)C(C)=C4CCC(=O)O)c(CCC(=O)O)c3C.[Zn+2]` [Zn deuteroporphyrin], the “% R @ 90 second read time” value on apo-POD [1] (120 μM metal porphyrin) turned out to be 70.7 % R; in series [2] (120 μM metal porphyrin), 71.3 % R.

Consider `Cc1cc(C)nc(NS(=O)(=O)c2ccc(N)cc2)n1` [Sulfamethazine], for which the “Reagent Response (% R @ 30 Sec) @ 660 nm” value at apo-peroxidase (24 nM antigen) was 21.3 % R; on apo-peroxidase (free antigen none), 23.6 % R. In addition, the “prevention of apo-enzyme reactivation by antibody (in words)” value on apo-peroxidase (antigen-hematin plus antibody) was “did not prevent apo-enzyme reactivation”.

On to `C=CC1=C(C)c2cc3[n-]c(cc4[n-]c(cc5nc(cc1n2)C(C)=C5C=C)c(C)c4CCC(=O)O)c(CCC(=O)O)c3C.O.[Fe+2]` [hematin], for which the “response of HEMASTIX reagent, % reflectance” value at apo-peroxidase (phosphate buffered saline solution containing hematin alone, 1 minute) stood at 65.7 % reflectance. Also, the “peroxidase activity (in words)” value on apo-POD [4] (in the presence of apo-POD) is “detectable at 3.6 nM”; on apo-POD [4] (without partner), “not detectable”. Besides, the “Mean % Reflectance @ 660 nm” value at apo-POD [5] (setting [6]) is 64.9%; on apo-POD [5] (3.6 nM, antigen IgG, with apo-POD (Cases C, D)) it was 46.3%; at apo-POD [5] (setting [7]), 63.4%; on apo-POD [5] ((3.6 nM; antigen Sulfmethazine), with apo-POD (Cases C, D)), 48.9%; at apo-POD [5] (setting [8]), 65.1%; at apo-POD [5] ((3.6 mM; antigen BJP), with apo-POD (Cases C, D)) it was 55.3%.

Take `CC1=Cc2cc3[n-]c(cc4nc(cc5[n-]c(cc1n2)cc5C)C(C)=C4CCC(=O)O)c(CCC(=O)O)c3C.[Mg+2]` [Mg deuteroporphyrin]: the figures for the “% R @ 90 second read time” value (on apo-POD [1] (120 μM metal porphyrin); in series [2] (120 μM metal porphyrin)) were 70.9 % R and 74.4 % R, respectively.

Turning to Co deuteroporphyrin, the “% R @ 90 second read time” value is on record as 74.1 % R on apo-POD [1] (120 μM metal porphyrin) and 71.5 % R in series [2] (120 μM metal porphyrin).

Pb deuteroporphyrin: the “% R @ 90 second read time” value on apo-POD [1] (120 μM metal porphyrin) is given as 73.4 % R; in series [2] (120 μM metal porphyrin), 72.1 % R.

B1: myoglobin: interfering substance, 0.81 mg/dL (protein, UniProt P02144 2-154, looked up)
Myoglobin: GLSDGEWQLVLNVWGKVEADIPGHGQEVLIRLFKGHPETLEKFDKFKHLKSEDEMKASEDLKKHGATVLTALGGILKKKGHHEAEIKPLAQSHATKHKIPVKYLEFISECIIQVLQSKHPGDFGADAQGAMNKALELFRKDMASNYKELGFQG
For B1, the “interference with peroxidase detecting reagent (in words)” value with apo-POD [3] is on record as “causes a false positive response”.
